Conditions in all cases: PC-3
Assay [1] addresses T1, Serine/threonine-protein kinase D2 (Homo sapiens) (UniProt Q9BZL6).
T1 sequence (whole entry): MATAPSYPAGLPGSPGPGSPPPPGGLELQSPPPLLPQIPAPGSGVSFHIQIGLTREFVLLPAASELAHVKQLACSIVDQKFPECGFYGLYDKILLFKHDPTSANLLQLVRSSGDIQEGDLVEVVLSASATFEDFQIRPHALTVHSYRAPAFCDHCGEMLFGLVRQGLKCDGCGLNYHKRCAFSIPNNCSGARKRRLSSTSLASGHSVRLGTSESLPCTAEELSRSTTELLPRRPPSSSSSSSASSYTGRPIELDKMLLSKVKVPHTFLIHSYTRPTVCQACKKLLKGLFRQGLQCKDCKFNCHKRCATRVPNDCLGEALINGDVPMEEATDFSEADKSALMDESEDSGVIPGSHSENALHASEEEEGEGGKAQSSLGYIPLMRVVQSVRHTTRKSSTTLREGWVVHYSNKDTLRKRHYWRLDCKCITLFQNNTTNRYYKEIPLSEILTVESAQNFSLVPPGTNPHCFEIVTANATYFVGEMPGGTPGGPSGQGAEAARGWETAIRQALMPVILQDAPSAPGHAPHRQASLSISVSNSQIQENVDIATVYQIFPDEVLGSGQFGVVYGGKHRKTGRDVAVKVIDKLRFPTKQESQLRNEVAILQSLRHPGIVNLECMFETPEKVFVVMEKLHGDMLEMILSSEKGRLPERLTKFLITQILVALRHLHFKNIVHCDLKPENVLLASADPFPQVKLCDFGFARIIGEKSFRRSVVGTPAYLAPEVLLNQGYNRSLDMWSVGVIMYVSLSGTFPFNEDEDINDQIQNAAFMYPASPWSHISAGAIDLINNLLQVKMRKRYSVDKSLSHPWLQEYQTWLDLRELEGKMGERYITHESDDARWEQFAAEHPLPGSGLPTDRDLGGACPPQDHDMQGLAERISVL
The assay can be described thus: Inhibition of PKD2 in human PC3 cell lysates at 10 uM using desthiobiotin-tagged ATP probe AX9989 followed by trypsinization by LC/MS analysis.

The target of assay [2] is Macrophage-stimulating protein receptor (Homo sapiens) (UniProt Q04912). The assay is described as follows: Inhibition of RON in human PC3 cell lysates at 10 uM using desthiobiotin-tagged ATP probe AX9989 followed by trypsinization by LC/MS analysis.
In assay [3] the target is T2, Serine/threonine-protein kinase TAO1 (Homo sapiens) (UniProt Q7L7X3).
T2 sequence (whole entry): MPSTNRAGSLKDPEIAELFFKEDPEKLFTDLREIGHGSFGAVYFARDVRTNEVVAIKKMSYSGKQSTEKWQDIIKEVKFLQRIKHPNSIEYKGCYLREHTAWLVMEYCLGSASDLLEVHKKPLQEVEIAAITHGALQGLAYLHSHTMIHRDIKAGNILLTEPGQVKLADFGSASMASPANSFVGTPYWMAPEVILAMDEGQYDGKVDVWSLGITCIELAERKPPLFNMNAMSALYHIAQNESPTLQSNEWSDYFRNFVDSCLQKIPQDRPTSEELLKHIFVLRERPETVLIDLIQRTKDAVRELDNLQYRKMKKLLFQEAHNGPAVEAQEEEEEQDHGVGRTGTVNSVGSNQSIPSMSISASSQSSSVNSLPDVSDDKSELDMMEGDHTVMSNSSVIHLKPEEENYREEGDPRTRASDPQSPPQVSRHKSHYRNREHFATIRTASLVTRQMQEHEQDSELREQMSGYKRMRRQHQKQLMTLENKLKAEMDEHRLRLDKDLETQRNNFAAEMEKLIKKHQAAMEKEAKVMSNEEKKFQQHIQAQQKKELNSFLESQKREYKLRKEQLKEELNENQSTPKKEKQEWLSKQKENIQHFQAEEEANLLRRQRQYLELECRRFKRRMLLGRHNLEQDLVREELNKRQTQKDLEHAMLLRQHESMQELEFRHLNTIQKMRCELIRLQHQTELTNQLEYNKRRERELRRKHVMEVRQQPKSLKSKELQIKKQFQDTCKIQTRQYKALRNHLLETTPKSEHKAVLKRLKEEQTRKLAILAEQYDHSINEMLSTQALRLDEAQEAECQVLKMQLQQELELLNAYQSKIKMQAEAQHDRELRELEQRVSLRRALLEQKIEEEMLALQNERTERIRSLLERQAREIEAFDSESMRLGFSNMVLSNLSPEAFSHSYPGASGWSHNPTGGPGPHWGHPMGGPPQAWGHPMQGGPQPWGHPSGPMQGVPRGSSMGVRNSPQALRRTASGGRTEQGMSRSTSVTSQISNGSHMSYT
The assay can be described thus: Inhibition of TAO1 in human PC3 cell lysates at 10 uM using desthiobiotin-tagged ATP probe AX9989 followed by trypsinization by LC/MS analysis.

Assay [4] has as its target Focal adhesion kinase 1 (Homo sapiens) (UniProt Q05397). The assay is described as follows: Inhibition of FAK in human PC3 cell lysates at 10 uM using desthiobiotin-tagged ATP probe AX9989 followed by trypsinization by LC/MS analysis.
Assay [5] addresses Hepatocyte growth factor receptor (Homo sapiens) (UniProt P08581). The assay can be described thus: Inhibition of MET in human PC3 cell lysates at 10 uM using desthiobiotin-tagged ATP probe AX9989 followed by trypsinization by LC/MS analysis.
Assay [6] has as its target SRSF protein kinase 2 (Homo sapiens) (UniProt P78362). The assay is described as follows: Inhibition of SRPK2 in human PC3 cell lysates at 10 uM using desthiobiotin-tagged ATP probe AX9989 followed by trypsinization by LC/MS analysis.
The target of assay [7] is Phosphatidylinositol 4-kinase beta (Homo sapiens) (UniProt Q9UBF8). The assay can be described thus: Inhibition of PI4KB in human PC3 cell lysates at 10 uM using desthiobiotin-tagged ATP probe AX9989 followed by trypsinization by LC/MS analysis.

Here are results for twelve compounds from ChEMBL document CHEMBL2417377, “Hit-to-lead optimization and kinase selectivity of imidazo[1,2-a]quinoxalin-4-amine derived JNK1 inhibitors” (Bioorg Med Chem Lett, 2013).

Chain of Phosphatidylinositol 4-kinase beta (Homo sapiens) (Q9UBF8 2-816 limits assumed): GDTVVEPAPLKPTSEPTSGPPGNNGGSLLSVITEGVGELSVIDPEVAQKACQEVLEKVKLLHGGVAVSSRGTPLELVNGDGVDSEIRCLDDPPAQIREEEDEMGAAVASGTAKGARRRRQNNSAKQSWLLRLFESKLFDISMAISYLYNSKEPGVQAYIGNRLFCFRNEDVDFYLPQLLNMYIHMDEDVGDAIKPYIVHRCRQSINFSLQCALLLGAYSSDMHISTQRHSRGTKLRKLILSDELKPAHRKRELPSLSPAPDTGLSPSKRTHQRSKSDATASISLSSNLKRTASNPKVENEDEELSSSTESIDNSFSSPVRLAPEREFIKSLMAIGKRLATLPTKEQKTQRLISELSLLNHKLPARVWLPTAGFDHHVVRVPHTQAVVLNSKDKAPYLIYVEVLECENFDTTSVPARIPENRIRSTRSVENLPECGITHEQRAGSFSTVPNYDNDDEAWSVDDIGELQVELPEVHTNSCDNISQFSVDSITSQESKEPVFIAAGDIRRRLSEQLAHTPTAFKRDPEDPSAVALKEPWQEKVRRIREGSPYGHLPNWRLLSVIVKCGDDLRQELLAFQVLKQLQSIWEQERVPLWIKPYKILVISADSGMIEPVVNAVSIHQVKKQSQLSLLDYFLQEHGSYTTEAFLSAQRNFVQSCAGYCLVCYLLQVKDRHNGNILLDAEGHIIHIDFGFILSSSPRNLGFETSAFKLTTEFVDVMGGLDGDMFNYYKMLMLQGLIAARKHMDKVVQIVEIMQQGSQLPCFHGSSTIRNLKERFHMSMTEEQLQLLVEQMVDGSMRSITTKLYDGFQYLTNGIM
Chain of Hepatocyte growth factor receptor (Homo sapiens) (P08581 whole entry): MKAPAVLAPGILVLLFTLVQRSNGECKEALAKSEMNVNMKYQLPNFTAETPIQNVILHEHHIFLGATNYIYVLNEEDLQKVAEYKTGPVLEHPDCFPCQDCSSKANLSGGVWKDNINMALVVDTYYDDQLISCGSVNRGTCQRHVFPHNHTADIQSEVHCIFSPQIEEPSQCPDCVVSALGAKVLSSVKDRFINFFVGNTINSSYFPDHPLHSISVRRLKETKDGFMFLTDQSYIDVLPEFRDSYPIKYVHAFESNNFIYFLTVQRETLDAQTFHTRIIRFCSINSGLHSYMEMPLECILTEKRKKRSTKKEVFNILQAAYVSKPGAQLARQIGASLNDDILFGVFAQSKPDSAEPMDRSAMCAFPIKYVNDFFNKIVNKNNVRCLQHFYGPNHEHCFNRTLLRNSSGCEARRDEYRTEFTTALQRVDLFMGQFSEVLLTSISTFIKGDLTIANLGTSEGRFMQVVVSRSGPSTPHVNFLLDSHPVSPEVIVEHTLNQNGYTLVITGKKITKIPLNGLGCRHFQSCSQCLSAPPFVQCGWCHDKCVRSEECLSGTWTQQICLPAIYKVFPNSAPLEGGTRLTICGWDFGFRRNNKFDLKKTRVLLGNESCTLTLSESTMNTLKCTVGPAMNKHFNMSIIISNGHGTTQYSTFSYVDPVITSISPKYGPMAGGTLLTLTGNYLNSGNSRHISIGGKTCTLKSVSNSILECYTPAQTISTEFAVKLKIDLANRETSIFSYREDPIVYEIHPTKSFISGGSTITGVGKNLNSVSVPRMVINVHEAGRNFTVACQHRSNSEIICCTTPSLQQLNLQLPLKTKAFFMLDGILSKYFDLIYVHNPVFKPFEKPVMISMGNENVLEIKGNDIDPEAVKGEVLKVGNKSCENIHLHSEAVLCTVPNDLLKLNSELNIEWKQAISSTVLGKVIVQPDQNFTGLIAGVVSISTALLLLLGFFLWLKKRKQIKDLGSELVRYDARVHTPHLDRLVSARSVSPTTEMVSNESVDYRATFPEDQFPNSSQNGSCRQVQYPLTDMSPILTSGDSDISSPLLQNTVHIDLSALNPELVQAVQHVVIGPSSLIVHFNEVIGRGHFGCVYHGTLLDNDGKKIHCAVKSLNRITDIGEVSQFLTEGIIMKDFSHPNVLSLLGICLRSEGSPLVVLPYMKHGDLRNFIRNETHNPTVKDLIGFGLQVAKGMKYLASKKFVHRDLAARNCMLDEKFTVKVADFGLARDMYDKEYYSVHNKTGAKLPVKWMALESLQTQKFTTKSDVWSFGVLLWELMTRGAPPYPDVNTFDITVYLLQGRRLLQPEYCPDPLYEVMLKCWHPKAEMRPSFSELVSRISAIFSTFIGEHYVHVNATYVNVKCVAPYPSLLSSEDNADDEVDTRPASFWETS
Chain of Macrophage-stimulating protein receptor (Homo sapiens) (Q04912 25-304 limits assumed): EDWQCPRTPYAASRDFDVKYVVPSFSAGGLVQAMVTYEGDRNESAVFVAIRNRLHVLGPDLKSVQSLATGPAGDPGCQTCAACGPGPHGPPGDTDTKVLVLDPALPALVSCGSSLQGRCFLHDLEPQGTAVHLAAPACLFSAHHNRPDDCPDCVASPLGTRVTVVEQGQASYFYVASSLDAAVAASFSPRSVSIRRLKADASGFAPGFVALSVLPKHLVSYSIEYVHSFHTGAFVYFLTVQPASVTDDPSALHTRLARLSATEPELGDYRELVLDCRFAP
Chain of Macrophage-stimulating protein receptor (Homo sapiens) (Q04912 310-1400 limits assumed): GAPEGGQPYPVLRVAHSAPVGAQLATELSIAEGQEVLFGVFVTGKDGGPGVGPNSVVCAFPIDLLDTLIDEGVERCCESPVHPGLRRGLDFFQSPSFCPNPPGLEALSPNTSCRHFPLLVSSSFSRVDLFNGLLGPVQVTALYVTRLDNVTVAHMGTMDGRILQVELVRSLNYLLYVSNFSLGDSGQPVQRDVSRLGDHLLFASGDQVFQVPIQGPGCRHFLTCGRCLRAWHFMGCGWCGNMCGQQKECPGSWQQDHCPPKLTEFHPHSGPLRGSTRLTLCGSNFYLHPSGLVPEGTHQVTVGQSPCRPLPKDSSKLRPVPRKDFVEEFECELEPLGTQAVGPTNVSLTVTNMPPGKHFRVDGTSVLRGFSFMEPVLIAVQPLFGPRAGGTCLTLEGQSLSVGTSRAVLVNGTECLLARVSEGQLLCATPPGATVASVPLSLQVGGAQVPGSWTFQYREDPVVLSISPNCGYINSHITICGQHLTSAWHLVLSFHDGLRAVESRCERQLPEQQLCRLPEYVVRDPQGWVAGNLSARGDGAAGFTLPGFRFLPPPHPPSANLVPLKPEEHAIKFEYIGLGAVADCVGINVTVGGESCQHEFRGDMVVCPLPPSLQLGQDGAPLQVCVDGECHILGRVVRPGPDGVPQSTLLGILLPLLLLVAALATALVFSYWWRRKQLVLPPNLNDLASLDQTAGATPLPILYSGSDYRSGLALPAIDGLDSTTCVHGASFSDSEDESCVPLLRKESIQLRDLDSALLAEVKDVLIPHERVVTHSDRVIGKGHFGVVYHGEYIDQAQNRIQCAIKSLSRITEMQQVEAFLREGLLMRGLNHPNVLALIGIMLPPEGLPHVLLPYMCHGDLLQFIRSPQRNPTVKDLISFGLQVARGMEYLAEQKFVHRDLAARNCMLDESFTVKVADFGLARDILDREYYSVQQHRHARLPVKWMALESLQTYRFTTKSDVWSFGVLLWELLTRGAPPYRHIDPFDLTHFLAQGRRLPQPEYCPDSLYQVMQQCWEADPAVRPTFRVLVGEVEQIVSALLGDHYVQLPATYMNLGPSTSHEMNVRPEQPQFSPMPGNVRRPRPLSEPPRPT
Chain of SRSF protein kinase 2 (Homo sapiens) (P78362 whole entry, looked up): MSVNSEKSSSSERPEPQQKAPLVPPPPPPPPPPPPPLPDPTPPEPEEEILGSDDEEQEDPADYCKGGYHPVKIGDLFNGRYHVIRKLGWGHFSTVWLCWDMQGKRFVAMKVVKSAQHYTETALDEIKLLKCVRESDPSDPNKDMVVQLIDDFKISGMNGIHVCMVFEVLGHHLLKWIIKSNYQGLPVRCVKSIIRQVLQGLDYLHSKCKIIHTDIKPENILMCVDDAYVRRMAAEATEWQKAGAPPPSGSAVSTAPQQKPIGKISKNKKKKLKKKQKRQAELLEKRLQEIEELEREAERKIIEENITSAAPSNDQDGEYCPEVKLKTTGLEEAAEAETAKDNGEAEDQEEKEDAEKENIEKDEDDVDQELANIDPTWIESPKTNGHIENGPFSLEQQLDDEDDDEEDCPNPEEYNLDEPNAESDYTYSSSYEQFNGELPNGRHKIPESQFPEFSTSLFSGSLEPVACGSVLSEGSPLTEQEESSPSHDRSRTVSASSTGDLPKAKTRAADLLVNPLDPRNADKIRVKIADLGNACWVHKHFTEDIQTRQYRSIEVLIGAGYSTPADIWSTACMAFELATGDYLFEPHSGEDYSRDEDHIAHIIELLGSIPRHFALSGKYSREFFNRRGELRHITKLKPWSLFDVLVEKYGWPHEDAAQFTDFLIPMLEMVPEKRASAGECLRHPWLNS

One may read the inhibition as the drop in the measured response relative to a control, in per cent. For `CC[C@@H](NC(=O)c1ccc2nc(N[C@H]3CC[C@H](O)CC3)c3nccn3c2c1)c1ccccc1`, the inhibition in assay [1], in assay [2], in assay [3], in assay [4], in assay [5] and in assay [6] was less than 35% each time. Further, the inhibition in assay [7] was less than 35%.

For the compound `O=C(N[C@H](CO)c1ccccc1)c1ccc2nc(N[C@H]3CC[C@H](O)CC3)c3nccn3c2c1`, the inhibition in assay [1], in assay [2], in assay [3], in assay [4], in assay [5] and in assay [6] was less than 35% throughout. In assay [7], this compound displayed an inhibition of 51%.

As to `O=C(NC1(c2ccccc2)CCC1)c1ccc2nc(N[C@H]3CC[C@H](O)CC3)c3nccn3c2c1`, the inhibition in assay [1], in assay [2], in assay [3], in assay [4], in assay [5] and in assay [6] was less than 35% in each case. Further, the inhibition in assay [7] is less than 35%.

Turning to `CCC[C@@H](NC(=O)c1ccc2nc(N[C@H]3CC[C@H](O)CC3)c3nccn3c2c1)c1ccccc1`, the inhibition in assay [1], in assay [2], in assay [3], in assay [4], in assay [5] and in assay [6] was less than 35% in each case. The inhibition in assay [7] is less than 35%.

For `CC(C)(NC(=O)c1ccc2nc(N[C@H]3CC[C@H](O)CC3)c3nccn3c2c1)c1ccccc1`, the inhibition in assay [1], in assay [2], in assay [3], in assay [4], in assay [5] and in assay [6] was less than 35% throughout. Further, the inhibition in assay [7] was less than 35%.

As to `O=C(O)c1ccc2nc(N[C@H]3CC[C@H](O)CC3)c3nccn3c2c1`, the inhibition in assay [1], in assay [2], in assay [3], in assay [4], in assay [5] and in assay [6] was less than 35% each time. Moreover, the inhibition in assay [7] was 99.2%.

`O=C(NC1(c2ccccc2)CC1)c1ccc2nc(N[C@H]3CC[C@H](O)CC3)c3nccn3c2c1`: the inhibition in assay [1], in assay [2], in assay [3], in assay [4], in assay [5] and in assay [6] was less than 35% in each case. In assay [7], this compound registered an inhibition of less than 35%.

On to `NC(=O)c1ccc2nc(N[C@H]3CC[C@H](O)CC3)c3nccn3c2c1`, for which the inhibition in assay [1] is 51.7%; in assay [2] it was less than 35%; in assay [3] it was less than 35%; in assay [4] it was less than 35%; in assay [5], less than 35%; in assay [6] it was less than 35%. In assay [7], this compound displayed an inhibition of 94.2%.

In the case of `C[C@@H](NC(=O)c1ccc2nc(N[C@H]3CC[C@H](O)CC3)c3nccn3c2c1)c1ccccc1`, the inhibition in assay [1], in assay [2], in assay [3], in assay [4], in assay [5] and in assay [6] was less than 35% each time. In assay [7], this compound returned an inhibition of 40.4%.

In the case of `C[C@H](NC(=O)c1ccc2nc(N[C@H]3CC[C@H](O)CC3)c3nccn3c2c1)c1ccccc1`, the inhibition in assay [1], in assay [2], in assay [3], in assay [4], in assay [5] and in assay [6] was less than 35% each time. In assay [7], this compound showed an inhibition of less than 35%.

Regarding `O=C(NC1(c2ccc(F)cc2)CC1)c1ccc2nc(N[C@H]3CC[C@H](O)CC3)c3nccn3c2c1`, the inhibition in assay [1], in assay [2], in assay [3], in assay [4], in assay [5] and in assay [6] was less than 35% each time. Moreover, the inhibition in assay [7] is less than 35%.

Consider `O=C(NC1(Cc2ccc(F)cc2)CC1)c1ccc2nc(N[C@H]3CC[C@H](O)CC3)c3nccn3c2c1`, for which the inhibition in assay [1], in assay [2], in assay [3], in assay [4], in assay [5] and in assay [6] was less than 35% throughout. The compound also registered an inhibition in assay [7] of less than 35%.
